Laboratory results taken from ChEMBL document CHEMBL5131376, “Kinase Inhibitors as Underexplored Antiviral Agents” (J Med Chem, 2022).

Key:
[1] = Cytotoxicity against human […] cells; type: toxicity, cell-based; details: U2OS cells
[2] = Inhibition of PDGFR (unknown origin); set-up: species or system Homo sapiens
[3] = target: 1-phosphatidylinositol 3-phosphate 5-kinase (Homo sapiens, UniProt Q9Y2I7); experiment: Inhibition of PIKFYVE (unknown origin)
SARS-CoV-2 = experiment: Antiviral activity against SARS-CoV-2 infected in african green monkey Vero cells incubated for 72 hrs by celltitre-glo luminescent assay; type: functional, organism-based; details: Severe acute respiratory syndrome coronavirus 2, Vero
[4] = Cytotoxicity against african green monkey Vero cells; type: toxicity, cell-based; details: chlorocebus sabaeus
Zika virus = experiment: Antiviral activity against ZIKV infected in human SNB-19 cells; type: functional, organism-based
[5] = target: Cyclin-dependent kinase 2 (Homo sapiens, UniProt P24941); experiment: Inhibition of CDK2 (unknown origin)
[6] = Binding affinity to AMPK (unknown origin); set-up: species or system Homo sapiens
[7] = target: High affinity nerve growth factor receptor (Homo sapiens, UniProt P04629); experiment: Inhibition of TrKA (unknown origin)
[8] = tested on: Human immunodeficiency virus 1; experiment: Antiviral activity against HIV-1 in U87/CD4/CCR5 cells expressing HIV-1-envelope-protein assessed as decreased cell-cell fusion at 300 nM; type: functional; set-up: scale not given: the % may be the effect or the level left
[9] = target: Cyclin-G-associated kinase (Homo sapiens, UniProt O14976); experiment: Binding affinity to GAK (unknown origin) assessed as dissociation constant
Chain of Cyclin-G-associated kinase (O14976 whole entry): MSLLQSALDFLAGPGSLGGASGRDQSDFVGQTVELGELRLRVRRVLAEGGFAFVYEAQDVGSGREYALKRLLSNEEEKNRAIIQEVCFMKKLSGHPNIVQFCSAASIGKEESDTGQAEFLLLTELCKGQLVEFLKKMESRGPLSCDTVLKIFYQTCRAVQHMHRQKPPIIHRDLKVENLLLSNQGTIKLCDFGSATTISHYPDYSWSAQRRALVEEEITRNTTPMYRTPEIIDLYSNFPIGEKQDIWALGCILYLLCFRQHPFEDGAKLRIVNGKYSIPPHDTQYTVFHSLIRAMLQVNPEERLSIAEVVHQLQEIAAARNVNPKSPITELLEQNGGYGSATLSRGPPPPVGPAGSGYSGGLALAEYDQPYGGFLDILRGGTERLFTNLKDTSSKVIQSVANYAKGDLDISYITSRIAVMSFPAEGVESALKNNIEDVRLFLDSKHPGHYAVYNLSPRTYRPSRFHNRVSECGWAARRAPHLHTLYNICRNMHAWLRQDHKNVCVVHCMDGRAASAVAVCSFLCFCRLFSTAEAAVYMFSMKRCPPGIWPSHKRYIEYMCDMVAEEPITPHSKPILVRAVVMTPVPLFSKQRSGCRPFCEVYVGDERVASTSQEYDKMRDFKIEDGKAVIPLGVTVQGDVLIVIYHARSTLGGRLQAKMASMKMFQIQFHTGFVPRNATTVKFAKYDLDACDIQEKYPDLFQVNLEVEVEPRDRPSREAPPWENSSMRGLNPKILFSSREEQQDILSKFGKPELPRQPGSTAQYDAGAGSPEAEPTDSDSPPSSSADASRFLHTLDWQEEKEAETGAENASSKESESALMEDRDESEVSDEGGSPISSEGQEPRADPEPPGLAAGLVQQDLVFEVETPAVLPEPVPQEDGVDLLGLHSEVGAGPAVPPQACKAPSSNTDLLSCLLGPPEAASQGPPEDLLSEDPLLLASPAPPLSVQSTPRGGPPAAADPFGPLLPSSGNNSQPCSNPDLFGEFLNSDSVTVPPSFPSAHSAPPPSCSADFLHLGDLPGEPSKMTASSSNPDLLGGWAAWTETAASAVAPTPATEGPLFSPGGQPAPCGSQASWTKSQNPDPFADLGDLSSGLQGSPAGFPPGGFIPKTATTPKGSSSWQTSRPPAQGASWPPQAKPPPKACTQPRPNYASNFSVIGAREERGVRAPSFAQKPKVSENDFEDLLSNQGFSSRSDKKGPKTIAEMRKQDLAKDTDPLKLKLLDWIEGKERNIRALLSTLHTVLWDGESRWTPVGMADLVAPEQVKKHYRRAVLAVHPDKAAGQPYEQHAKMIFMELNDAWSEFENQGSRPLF

[10] = Inhibition of MEK (unknown origin); set-up: species or system Homo sapiens
[11] = target: Dual specificity mitogen-activated protein kinase kinase 1 (Homo sapiens, UniProt Q02750)
Chain of Dual specificity mitogen-activated protein kinase kinase 1 (Q02750 whole entry): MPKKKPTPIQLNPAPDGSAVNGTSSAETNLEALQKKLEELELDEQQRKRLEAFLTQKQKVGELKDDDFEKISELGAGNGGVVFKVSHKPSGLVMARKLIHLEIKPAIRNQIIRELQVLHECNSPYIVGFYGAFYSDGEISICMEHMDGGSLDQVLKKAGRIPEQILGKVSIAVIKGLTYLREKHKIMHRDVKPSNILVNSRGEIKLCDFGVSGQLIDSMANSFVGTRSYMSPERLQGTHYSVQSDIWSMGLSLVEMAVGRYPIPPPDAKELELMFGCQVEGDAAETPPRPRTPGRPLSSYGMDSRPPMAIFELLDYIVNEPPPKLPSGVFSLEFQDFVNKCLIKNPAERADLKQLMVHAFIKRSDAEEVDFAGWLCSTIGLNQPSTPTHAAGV

Influenza A virus [12] = experiment: Antiviral activity against Influenza A virus (A/WSN/33 (H1N1)); type: functional, organism-based
Influenza B virus [13] = experiment: Antiviral activity against Influenza B virus B/Lee/40; type: functional, organism-based
Influenza A virus [14] = experiment: Antiviral activity against Influenza A virus (A/Udorn/72 (H3N2)); type: functional, organism-based
Influenza A virus [15] = experiment: Antiviral activity against Influenza A virus A/Equine/2/MIAMI/1/63 (H3N8)); type: functional, organism-based
Influenza A virus [16] = experiment: Antiviral activity against Influenza A virus (A/PR/8/34 (H1N1)); type: functional, organism-based
Influenza B virus [17] = experiment: Antiviral activity against Influenza B virus B/MD/59; type: functional, organism-based
Parainfluenza virus 5 = experiment: Antiviral activity against PIV5; type: functional, organism-based
[18] = target: Tyrosine-protein kinase ABL1 (Homo sapiens, UniProt P00519)
Chain of Tyrosine-protein kinase ABL1 (P00519 whole entry): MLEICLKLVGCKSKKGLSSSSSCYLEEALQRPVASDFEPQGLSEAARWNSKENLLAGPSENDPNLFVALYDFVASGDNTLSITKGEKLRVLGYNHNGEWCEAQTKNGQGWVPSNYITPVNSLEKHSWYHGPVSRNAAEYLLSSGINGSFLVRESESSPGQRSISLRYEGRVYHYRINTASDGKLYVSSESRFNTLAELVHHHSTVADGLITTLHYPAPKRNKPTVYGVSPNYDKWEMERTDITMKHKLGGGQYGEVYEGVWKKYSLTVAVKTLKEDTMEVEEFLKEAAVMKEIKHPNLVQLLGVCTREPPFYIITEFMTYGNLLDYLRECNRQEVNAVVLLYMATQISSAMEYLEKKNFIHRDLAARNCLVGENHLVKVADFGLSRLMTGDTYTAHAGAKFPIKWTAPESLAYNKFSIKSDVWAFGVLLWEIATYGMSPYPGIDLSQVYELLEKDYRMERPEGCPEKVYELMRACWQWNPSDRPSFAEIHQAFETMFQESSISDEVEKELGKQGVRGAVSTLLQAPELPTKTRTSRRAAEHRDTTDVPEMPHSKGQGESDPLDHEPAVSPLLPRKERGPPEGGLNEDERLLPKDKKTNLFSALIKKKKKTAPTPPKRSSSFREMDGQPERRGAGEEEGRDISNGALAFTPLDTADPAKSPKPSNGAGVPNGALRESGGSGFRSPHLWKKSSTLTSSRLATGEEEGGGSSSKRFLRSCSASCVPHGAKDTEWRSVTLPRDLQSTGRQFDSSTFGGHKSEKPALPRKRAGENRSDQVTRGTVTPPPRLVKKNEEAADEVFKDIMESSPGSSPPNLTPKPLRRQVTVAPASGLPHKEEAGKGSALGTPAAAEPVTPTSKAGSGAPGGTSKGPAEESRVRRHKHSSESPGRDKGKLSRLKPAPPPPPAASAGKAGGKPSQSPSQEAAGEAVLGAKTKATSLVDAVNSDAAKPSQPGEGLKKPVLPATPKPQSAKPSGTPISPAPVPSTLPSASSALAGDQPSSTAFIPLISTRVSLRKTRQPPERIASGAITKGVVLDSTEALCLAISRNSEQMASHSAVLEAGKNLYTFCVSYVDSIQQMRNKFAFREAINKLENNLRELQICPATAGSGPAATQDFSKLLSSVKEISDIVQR

dengue virus type 1 = experiment: Antiviral activity against DENV 1 infected in hamster BHK-21 cells assessed as focus formation measured after 5 days; type: functional, organism-based; details: BHK-21, 120 h
dengue virus type 2 = experiment: Antiviral activity against DENV 2 infected in african green monkey Vero cells assessed as focus formation measured after 6 days; type: functional, organism-based; details: 144 h
dengue virus type 3 = experiment: Antiviral activity against DENV 3 infected in african green monkey Vero cells assessed as focus formation measured after 6 days; type: functional, organism-based; details: 144 h
dengue virus type 4 = experiment: Antiviral activity against DENV 4 infected in african green monkey Vero cells assessed as focus formation measured after 6 days; type: functional, organism-based; details: 144 h
[19] = tested on: Middle East respiratory syndrome-related coronavirus; experiment: Antiviral activity against MERS-CoV infected in human HUh-7 cells at 0.1 to 10 uM; type: functional; details: dose 0.1-10 µM
[20] = target: BMP-2-inducible protein kinase (Homo sapiens, UniProt Q9NSY1); experiment: Binding affinity to BIKE (unknown origin) assessed as dissociation constant
Chain of BMP-2-inducible protein kinase (Q9NSY1 whole entry): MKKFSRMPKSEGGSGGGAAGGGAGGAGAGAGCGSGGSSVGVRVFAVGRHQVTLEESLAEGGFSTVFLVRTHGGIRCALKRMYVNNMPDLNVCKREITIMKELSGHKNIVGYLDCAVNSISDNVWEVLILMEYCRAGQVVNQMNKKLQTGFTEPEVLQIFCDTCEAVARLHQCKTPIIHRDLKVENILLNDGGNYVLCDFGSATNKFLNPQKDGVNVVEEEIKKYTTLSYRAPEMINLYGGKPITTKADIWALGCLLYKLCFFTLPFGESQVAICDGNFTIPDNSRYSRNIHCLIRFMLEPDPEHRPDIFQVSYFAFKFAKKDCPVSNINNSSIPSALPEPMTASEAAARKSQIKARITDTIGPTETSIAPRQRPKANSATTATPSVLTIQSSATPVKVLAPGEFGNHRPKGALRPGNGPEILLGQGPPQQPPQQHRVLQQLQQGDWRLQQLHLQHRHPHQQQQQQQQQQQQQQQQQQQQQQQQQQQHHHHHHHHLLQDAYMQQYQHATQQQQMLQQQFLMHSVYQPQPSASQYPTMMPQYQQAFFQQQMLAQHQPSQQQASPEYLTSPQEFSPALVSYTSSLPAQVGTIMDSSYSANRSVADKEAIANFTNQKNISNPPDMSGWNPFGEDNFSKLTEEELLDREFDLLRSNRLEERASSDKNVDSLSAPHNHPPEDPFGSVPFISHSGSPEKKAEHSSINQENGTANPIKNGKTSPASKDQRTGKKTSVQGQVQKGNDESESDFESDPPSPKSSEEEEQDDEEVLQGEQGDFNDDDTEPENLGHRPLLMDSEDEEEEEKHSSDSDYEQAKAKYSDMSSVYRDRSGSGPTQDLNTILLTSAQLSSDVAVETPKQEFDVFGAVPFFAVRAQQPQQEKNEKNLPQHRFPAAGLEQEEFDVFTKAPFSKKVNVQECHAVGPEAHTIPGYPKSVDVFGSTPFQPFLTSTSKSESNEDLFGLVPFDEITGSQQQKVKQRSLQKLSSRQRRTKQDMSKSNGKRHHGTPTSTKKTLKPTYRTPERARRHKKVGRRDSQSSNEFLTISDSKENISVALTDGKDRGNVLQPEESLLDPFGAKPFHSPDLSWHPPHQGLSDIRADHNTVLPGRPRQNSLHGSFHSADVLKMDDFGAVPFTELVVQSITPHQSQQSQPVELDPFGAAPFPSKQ

[21] = target: AP2-associated protein kinase 1 (Homo sapiens, UniProt Q2M2I8); experiment: Binding affinity to AAK1 (unknown origin) assessed as dissociation constant
Chain of AP2-associated protein kinase 1 (Q2M2I8 whole entry): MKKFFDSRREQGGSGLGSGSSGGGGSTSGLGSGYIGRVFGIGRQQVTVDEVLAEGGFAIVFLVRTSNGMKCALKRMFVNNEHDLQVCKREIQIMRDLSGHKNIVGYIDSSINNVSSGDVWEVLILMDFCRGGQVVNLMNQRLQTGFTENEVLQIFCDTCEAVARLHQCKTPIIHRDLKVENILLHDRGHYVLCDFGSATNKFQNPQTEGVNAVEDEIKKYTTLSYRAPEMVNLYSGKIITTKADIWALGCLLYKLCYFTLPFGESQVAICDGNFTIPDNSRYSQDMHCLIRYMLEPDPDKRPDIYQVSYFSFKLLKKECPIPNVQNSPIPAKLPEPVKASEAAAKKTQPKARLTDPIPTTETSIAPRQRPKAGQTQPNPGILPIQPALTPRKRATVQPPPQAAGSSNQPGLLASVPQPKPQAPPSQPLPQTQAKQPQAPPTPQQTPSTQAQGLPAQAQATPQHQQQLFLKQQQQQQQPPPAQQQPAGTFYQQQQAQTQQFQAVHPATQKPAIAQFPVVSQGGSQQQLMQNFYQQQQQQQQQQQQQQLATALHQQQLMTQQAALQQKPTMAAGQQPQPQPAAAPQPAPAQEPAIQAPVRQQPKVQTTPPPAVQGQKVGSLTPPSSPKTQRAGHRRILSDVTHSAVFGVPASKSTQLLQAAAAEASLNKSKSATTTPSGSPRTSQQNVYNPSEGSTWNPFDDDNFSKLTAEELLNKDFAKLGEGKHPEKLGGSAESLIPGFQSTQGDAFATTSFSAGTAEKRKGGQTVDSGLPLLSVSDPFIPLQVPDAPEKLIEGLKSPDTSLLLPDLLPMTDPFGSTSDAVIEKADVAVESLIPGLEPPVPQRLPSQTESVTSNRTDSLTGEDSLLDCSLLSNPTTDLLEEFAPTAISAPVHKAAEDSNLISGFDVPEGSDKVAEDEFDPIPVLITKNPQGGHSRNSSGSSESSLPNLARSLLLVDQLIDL

SARS-CoV = experiment: microbe, parasite or virus in culture; details: Severe acute respiratory syndrome-related coronavirus, Vero C1008, 50 h
Human alphaherpesvirus 1 = experiment: Antiviral activity against HSV-1 infected in African green monkey Vero cells assessed as inhibition of viral replication; type: functional, organism-based; details: Human alphaherpesvirus 1, Vero
[22] = tested on: Middle East respiratory syndrome-related coronavirus; experiment: microbe, parasite or virus in culture; details: Vero

In the case of `C1=Nc2ccccc2/C1=C/NNc1nc(Nc2ccccc2)nc(N2CCOCC2)n1`, the IC50 [1] is reported as 0.014 µM.

For `CNC(=O)c1cc(Oc2ccc(NC(=O)Nc3ccc(Cl)c(C(F)(F)F)c3)cc2)ccn1` [SORAFENIB], the IC50 [2] was 0.02 µM.

In the case of `Ic1cccc(/C=N/Nc2nc(N3CCOCC3)nc(N(c3ccccc3)c3ccccc3)n2)c1`, the IC50 [3] is reported as 0.009 µM.

In the case of `CC(C)(C)c1cc(C=C(C#N)C#N)cc(C(C)(C)C)c1O` [TYRPHOSTIN A9], the IC50 [2] is reported as 0.5 µM.

In the case of `CCN1CCN(Cc2ccc(Nc3ncc(F)c(-c4cc(F)c5nc(C)n(C(C)C)c5c4)n3)nc2)CC1` [ABEMACICLIB], the IC50 (SARS-CoV-2) is reported as 6600 µM and the CC50 [4] is reported as greater than 50 µM.

Molecule `CC(=O)Nc1ccc(C(C)C(=O)Nc2ncc(C(C)C)s2)cc1` (configuration not stated) has an IC50 (Zika virus) of 1.72 µM and an IC50 [5] of 0.031 µM.

With `c1cc(-c2cnn3cc(-c4ccc(OCCN5CCCCC5)cc4)cnc23)ccn1` [DORSOMORPHIN] the IC50 [6] was 0.109 µM.

In the case of `CC(C)(C)c1cc(/C=C(\C#N)C(N)=S)cc(C(C)(C)C)c1O` [TYRPHOSTIN AG 879], the IC50 [7] is reported as 10 µM.

Molecule `Cc1nc(Nc2ncc(C(=O)Nc3c(C)cccc3Cl)s2)cc(N2CCN(CCO)CC2)n1.O` [DASATINIB] has an Activity [8] of 93%.

For `COc1cc(N(C)c2ccnc3ccc(C(F)(F)F)cc23)cc(OC)c1OC`, the Kd [9] was 2.5 µM.

`O=C(O)c1ccc(F)c(F)c1Nc1ccc(I)cc1Cl` [ZAPNOMETINIB] gave an IC50 [10] of 0.00573 µM and an IC50 [11] of 0.00573 µM.

With `COc1ccc(Cc2nccc3cc(OC)c(OC)cc23)cc1OC` [PAPAVERINE] the IC50 (Influenza A virus [12]) was 2 µM, the IC50 (Influenza B virus [13]) was 2 µM and the IC50 (Influenza A virus [14]) was 2 µM. For the same molecule, the IC50 (Influenza A virus [15]) was 2 µM, the IC50 (Influenza A virus [16]) was 2 µM and the IC50 (Influenza B virus [17]) was 2 µM. It also gave an IC50 (Parainfluenza virus 5) of 2 µM.

`CC(=O)c1cccc(-c2cc(Nc3ccc(OC(F)(F)F)cc3)ncn2)c1` gave an IC50 [18] of 0.138 µM, an IC50 (dengue virus type 1) of 5 µM and an IC50 (dengue virus type 2) of 5 µM. The IC50 (dengue virus type 3) was 5 µM and the IC50 (dengue virus type 4) was 5 µM.

In the case of `CC(=O)Nc1cccc(-n2c(=O)n(C3CC3)c(=O)c3c(Nc4ccc(I)cc4F)n(C)c(=O)c(C)c32)c1` [TRAMETINIB], the Activity [19] is reported as greater than 95%.

For `COc1cc(O)c2c(c1)/C=C/C[C@H](O)[C@H](O)C(=O)/C=C\C[C@H](C)OC2=O`, the Kd [20] was 0.0038 µM.

Molecule `COc1ccccc1-c1cnc2ccc(N3CC[C@H](N(C)C(=O)C(C)(C)C)C3)nn12` has a Kd [21] of 0.001 µM.

Work on `COc1ccc(-c2cnc3[nH]cc(C#Cc4cccnc4)c3c2)cc1OC` yielded a Kd [21] of 0.004 µM.

Molecule `Cc1cn(-c2cc(NC(=O)c3ccc(C)c(Nc4nccc(-c5cccnc5)n4)c3)cc(C(F)(F)F)c2)cn1` [NILOTINIB] has an EC50 (SARS-CoV) of 2.1 µM.

With `COc1ccccc1-c1cnc2ccc(N3CC[C@H](N(C)C(=O)C(C)C)C3)nn12` the Kd [21] was 0.001 µM.

In the case of `Fc1ccc(N2CCCCC2)c(NC(=S)c2ccncc2)c1`, the EC50 (Human alphaherpesvirus 1) is reported as 0.69 µM.

`Cc1ccc(NC(=O)c2ccc(CN3CCN(C)CC3)cc2)cc1Nc1nccc(-c2cccnc2)n1` [IMATINIB] showed an EC50 (SARS-CoV) of 2.1 µM.

With `CC(C)C(=O)Nc1n[nH]c2cc(-c3cccc(NS(=O)(=O)C4CC4)c3)ccc12` the Kd [21] was 18 µM.

For `CN1CCN(CCOc2cc(OC3CCOCC3)c3c(Nc4c(Cl)ccc5c4OCO5)ncnc3c2)CC1` [SARACATINIB], the EC50 [22] was 2.9 µM.

Molecule `Cn1cnc2c(F)c(Nc3ccc(Br)cc3Cl)c(C(=O)NOCCO)cc21` [SELUMETINIB] has an Activity [19] greater than 95%.
